Assays:
MV4-11 cells = test: Inhibition of MV4-11 cell proliferation (CellTiterGlo, 72 h); format: cell-based; conditions: Homo sapiens; 72 h growth inhibition; uncertainty ±20%
Protocol: MV4-11 cells cannot grow and survive without active FLT3ITD.
To measure proliferation inhibition by test compounds, the luciferase based CellTiterGlo reagent (Promega), which quantifies total cell number based on total cellular ATP concentration, was used. Cells are plated at 10,000 cells per well in 100 ul of in RPMI media containing penn/strep, 10% FBS and 1 ng/ml GM-CSF or 1 ng/ml IL-3 for MV4-11 and Baf3 cells respectively.
Compound dilutions or 0.1% DMSO (vehicle control) are added to cells and the cells are allowed to grow for 72 hours at standard cell growth conditions (37° C., 5% CO2). For activity measurements in MV4-11 cells grown in 50% plasma, cells were plated at 10,000 cells per well in a 1:1 mixture of growth media and human plasma (final volume of 100 μL). To measure total cell growth an equal volume of CellTiterGlo reagent was added to each well, according to the manufacturer's instructions, and luminescence was quantified. Total cell growth was quantified as the difference in luminescent counts (relative light units, RLU) of cell number at Day 0 compared to total cell number at Day 3 (72 hours of growth and/or compound treatment). One hundred percent inhibition of growth is defined as an RLU equivalent to the Day 0 reading. Zero percent inhibition was defined as the RLU signal for the DMSO vehicle control at Day 3 of growth. All data points are an average of triplicate samples. […] Inhibition and IC50 data analysis was done with GraphPad Prism using a non-linear regression fit with a multiparamater, sigmoidal dose-response (variable slope) equation.
MV4-11 cells express the FLT3 internal tandem duplication mutation, and thus are entirely dependent upon FLT3 activity for growth. […] In contrast, the Baf3 cell proliferation is driven by the cytokine IL-3 and thus are used as a non-specific toxicity control for test compounds.

[1] = target: T1, isolated kinase domain of the human FLT3 receptor (a.a. 571-993) (Homo sapiens, UniProt P36888); test: FLT3 fluorescence polarization kinase assay; format: biochemical; conditions: 150 uM ATP; uncertainty ±10%
T1 construct: human FLT3 receptor (a.a. 571-993)
T1 sequence (P36888 571-993): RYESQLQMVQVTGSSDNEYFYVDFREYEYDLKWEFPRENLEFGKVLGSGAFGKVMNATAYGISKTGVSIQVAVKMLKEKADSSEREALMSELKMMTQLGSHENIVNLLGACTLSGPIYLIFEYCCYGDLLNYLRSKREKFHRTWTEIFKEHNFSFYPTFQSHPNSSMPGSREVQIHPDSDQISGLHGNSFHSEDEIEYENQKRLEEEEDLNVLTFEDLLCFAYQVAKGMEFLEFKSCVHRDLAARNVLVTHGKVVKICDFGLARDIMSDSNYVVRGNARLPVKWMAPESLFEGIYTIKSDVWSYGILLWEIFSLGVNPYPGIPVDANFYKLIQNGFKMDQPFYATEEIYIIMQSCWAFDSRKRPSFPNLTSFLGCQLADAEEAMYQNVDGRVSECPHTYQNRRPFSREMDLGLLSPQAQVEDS
Protocol: The FLT3 FP assay utilizes the fluorescein-labeled phosphopeptide and the anti-phosphotyrosine antibody included in the Panvera Phospho-Tyrosine Kinase Kit (Green) supplied by Invitrogen. When FLT3 phosphorylates polyGlu4Tyr, the fluorescein-labeled phosphopeptide is displaced from the anti-phosphotyrosine antibody by the phosphorylated poly Glu4Tyr, thus decreasing the FP value. The FLT3 kinase reaction is incubated at room temperature for 30 minutes under the following conditions: 10 nM FLT3 571-993, 20 ug/mL poly Glu4Tyr, 150 uM ATP, 5 mM MgCl2, 1% compound in DMSO. The kinase reaction is stopped with the addition of EDTA. The fluorescein-labeled phosphopeptide and the anti-phosphotyrosine antibody are added and incubated for 30 minutes at room temperature.
All data points are an average of triplicate samples. Inhibition and IC50 data analysis was done with GraphPad Prism using a non-linear regression fit with a multiparamater, sigmoidal dose-response (variable slope) equation.

| Compound | IC50 (MV4-11 cells) | IC50 [1] |
| --- | --- | --- |
| CS(=O)(=O)N1CC[C@@H](Oc2ccc3c(C4CCN(C(=O)Nc5ccc(N6CCCC6)cc5)CC4)ncnc3c2)C1 [Compound 177, (R)-4-[7-(1-Methanesulfonyl-pyrrolidin-3-yloxy)-quinazolin-4-yl]-piperidine-1-carboxylic acid (4-pyrrolidin-1-yl-phenyl)-amide] | 0.265 µM | 0.001 µM |
| CN1CCN(c2ccc3ncnc(C4CCN(C(=O)Nc5ccc(N6CCOCC6)cc5)CC4)c3c2)CC1 [Compound 198, 4-[6-(4-Methyl-piperazin-1-yl)-quinazolin-4-yl]-piperidine-1-carboxylic acid (4-morpholin-4-yl-phenyl)-amide] | 0.227 µM | 10.2 µM |
| COCC(=O)N1CCN(c2ccc3c(C4CCN(C(=O)Nc5ccc(N6CCCC6)cc5)CC4)ncnc3c2)CC1 [Compound 200] | 0.006 µM | 0.021 µM |
| COc1ccc2ncnc(C3CCN(C(=O)Nc4ccc(OC(C)C)cc4)CC3)c2c1 [Compound 203, 4-(6-Methoxy-quinazolin-4-yl)-piperidine-1-carboxylic acid (4-isopropoxy-phenyl)-amide] | 0.149 µM | 0.297 µM |
| CC(C)Oc1ccc(NC(=O)N2CCC(c3ncnc4cc(OCCCc5nnn[nH]5)ccc34)CC2)cc1 [Compound 204, 4-{7-[3-(1H-Tetrazol-5-yl)-propoxy]-quinazolin-4-yl}-piperidine-1-carboxylic acid (4-isopropoxy-phenyl)-amide] | > 1 µM | 0.306 µM |
| COc1cc2c(C3CCN(C(=O)Nc4ccc(N5CCCC5)cc4)CC3)ncnc2cc1OCCCN1CCN(C)CC1 [Compound 208, 4-{6-Methoxy-7-[3-(4-methyl-piperazin-1-yl)-propoxy]-quinazolin-4-yl}-piperidine-1-carboxylic acid (4-pyrrolidin-1-yl-phenyl)-amide] | 0.003 µM | 0.002 µM |
| CC(C)c1ccc(NC(=O)N2CCC(c3ccnc4ccccc34)CC2)cc1 [Example 5, 4-Quinolin-4-yl-piperidine-1-carboxylic acid (4-isopropyl-phenyl)-amide] | 0.29 µM | 0.094 µM |
| COc1cc2ncnc(C3CCN(C(=O)Nc4ccc(N5CCN(C)CC5)cc4)CC3)c2cc1OC [Example 20, 4-(6,7-Dimethoxy-quinazolin-4-yl)-piperidine-1-carboxylic acid [4-(4-methyl-piperazin-1-yl-phenyl)]-amide] | 1.1 µM | 6.6 µM |
| COc1cc2ncnc(C3CCN(C(=O)Nc4ccc5c(c4)CCO5)CC3)c2cc1OC [Example 27, 4-(6,7-Dimethoxy-quinazolin-4-yl)-piperidine-1-carboxylic acid (2,3-dihydro-benzofuran-5-yl)-amide] | 4.1 µM | 2 µM |
| COc1ccc(NC(=O)N2CCC(c3ncnc4cc(OC)c(OC)cc34)CC2)cc1 [Example 41, 4-(6,7-Dimethoxy-quinazolin-4-yl)-piperidine-1-carboxylic acid (4-methoxy-phenyl)-amide] | 3.3 µM | 0.73 µM |
| COc1cc2ncnc(C3CCN(C(=O)NC4CCCCC4)CC3)c2cc1OC [Example 42, 4-(6,7-Dimethoxy-quinazolin-4-yl)-piperidine-1-carboxylic acid cyclohexylamide] | > 10 µM | > 10 µM |
| COc1cc2ncnc(C3CCN(C(=O)Nc4ccc(C(F)(F)F)cc4)CC3)c2cc1OC [Example 46, 4-(6,7-Dimethoxy-quinazolin-4-yl)-piperidine-1-carboxylic acid (4-trifluoromethyl-phenyl)-amide] | 2 µM | 0.99 µM |
| COc1cc2ncnc(C3CCN(C(=O)Nc4ccc(C)cc4)CC3)c2cc1OC [Example 48, 4-(6,7-Dimethoxy-quinazolin-4-yl)-piperidine-1-carboxylic acid p-tolylamide] | 1.8 µM | 1.6 µM |
| COc1cc2ncnc(C3CCN(C(=O)Nc4ccc(OC(F)(F)F)cc4)CC3)c2cc1OC [Example 50, 4-(6,7-Dimethoxy-quinazolin-4-yl)-piperidine-1-carboxylic acid (4-trifluoromethoxy-phenyl)-amide] | 0.131 µM | 0.083 µM |
| COc1cc2ncnc(C3CCN(C(=O)Nc4ccc(N5CCCCCC5)cc4)CC3)c2cc1OC [Example 70, 4-(6,7-Dimethoxy-quinazolin-4-yl)-piperidine-1-carboxylic acid (4-azepan-1-yl-phenyl)-amide] | 0.008 µM | 0.027 µM |
| COc1cc2ncnc(C3CCN(C(=O)Nc4ccc(N5CCCCC5)c(Cl)c4)CC3)c2cc1OC [Example 71, 4-(6,7-Dimethoxy-quinazolin-4-yl)-piperidine-1-carboxylic acid (3-chloro-4-piperidin-1-yl-phenyl)-amide] | 0.11 µM | 0.139 µM |
| CN1CCN(CCCOc2ccc3c(C4CCN(C(=S)Nc5ccc(N6CCOCC6)nc5)CC4)ncnc3c2)CC1 [Example 106, 4-{7-[3-(4-Methyl-piperazin-1-yl)-propoxy]-quinazolin-4-yl}-piperidine-1-carbothioic acid (6-morpholin-4-yl-pyridin-3-yl)-amide] | 1 µM | 2.2 µM |
| O=C(Nc1ccc(N2CCOCC2)nc1)N1CCC(c2ncnc3cc(OCCCn4cnnc4)ccc23)CC1 [Example 110, 4-[7-(3-[1,2,4]Triazol-4-yl-propoxy)-quinazolin-4-yl]-piperidine-1-carboxylic acid (6-morpholin-4-yl-pyridin-3-yl)-amide] | 0.893 µM | 0.028 µM |
| CN(C)c1c(NCCCOc2ccc3c(C4CCN(C(=O)Nc5ccc(N6CCCC6)nc5)CC4)ncnc3c2)c(=O)c1=O [Example 111, 4-{7-[3-(2-Dimethylamino-3,4-dioxo-cyclobut-1-enylamino)-propoxy]-quinazolin-4-yl}-piperidine-1-carboxylic acid (6-pyrrolidin-1-yl-pyridin-3-yl)-amide] | 0.625 µM | 0.019 µM |
| O=C(NCCCOc1ccc2c(C3CCN(C(=O)Nc4ccc(N5CCOCC5)nc4)CC3)ncnc2c1)N1CCOCC1 [Example 113, Morpholine-4-carboxylic acid (3-{4-[1-(6-morpholin-4-yl-pyridin-3-ylcarbamoyl)-piperidin-4-yl]-quinazolin-7-yloxy}-propyl)-amide] | 0.36 µM | 0.132 µM |
| O=C(Nc1ccc(N2CCCC2)nc1)N1CCC(c2ncnc3cc(OCCCn4cnnc4)ccc23)CC1 [Example 114, 4-[7-(3-[1,2,4]Triazol-4-yl-propoxy)-quinazolin-4-yl]-piperidine-1-carboxylic acid (6-pyrrolidin-1-yl-pyridin-3-yl)-amide] | 0.178 µM | 0.009 µM |
| O=C(Nc1ccc(N2CCOCC2)cc1)N1CCC(c2ncnc3cc(N4CC[C@@H](O)C4)ccc23)CC1 [Example 126, (R)-4-[7-(3-Hydroxy-pyrrolidin-1-yl)-quinazolin-4-yl]-piperidine-1-carboxylic acid (4-morpholin-4-yl-phenyl)-amide] | 0.096 µM | 0.025 µM |
| O=C(Nc1ccc(N2CCCC2)cc1)N1CCC(c2ncnc3cc(N4CC[C@H](O)C4)ccc23)CC1 [Example 129, (S)-4-[7-(3-Hydroxy-pyrrolidin-1-yl)-quinazolin-4-yl]-piperidine-1-carboxylic acid (4-pyrrolidin-1-yl-phenyl)-amide] | 0.009 µM | 0.001 µM |
| CN(C)C(=O)N1CCN(c2ccc3c(C4CCN(C(=O)Nc5ccc(N6CCCC6)cc5)CC4)ncnc3c2)CC1 [Example 168, 4-{4-[1-(4-Pyrrolidin-1-yl-phenylcarbamoyl)-piperidin-4-yl]-quinazolin-7-yl}-piperazine-1-carboxylic acid dimethylamide] | 0.017 µM | 0.003 µM |

Source: US20070004660A1, “Synergistic Modulation of Flt3 Kinase Using Alkylquinolines and Alkylquinazolines” (priority 2005, published 2007)
